Source: US11331369B2, “Endoparasitic depsipeptides” (Zoetis Services LLC, priority 2017, dated 2022)

What was measured:
[1] = tested on: microfilariae of Dirofilaria immitis; test: Dirofilaria immitis, Microfilaria (DiMF) In vitro Assay; format: cell-based; details: 72 h, read-out: DiMF Minimum Effective Dose (MED), approximately 72 hours incubation, microfilariae assessed for survival or paralysis
[2] = Canine pharmacokinetic (PK) study, single IV or oral dose; details: dog, in vivo, po, 1 mg/kg
[3] = tested on: third stage larvae of Haemonchus contortus; test: Haemonchus contortus L3 (HcL3) Assay; format: cell-based; details: 96 h, read-out: HcL3 Minimum Effective Dose (MED)
[4] = tested on: 4th stage larvae (L4) of Dirofilaria immitis; test: Dirofilaria immitis, L4 Stage (DiL4) In Vitro Assay; format: cell-based; details: Dirofilaria immitis, 72 h, read-out: DiL4 Minimum Effective Dose (MED), approximately 72 hours incubation; L4 larvae assessed for survival or paralysis

Structure (SMILES) | minimal effective concentration [1] [µM] | Cmax [2] [ng/mL] | half-life [2] [h] | minimal effective concentration [3] [µM] | minimal effective concentration [4] [µM]
CC(C)C[C@H]1C(=O)O[C@H](Cc2ccc(Cn3cc(C4CC4)cn3)cc2)C(=O)N(C)[C@@H](CC(C)C)C(=O)O[C@H](C)C(=O)N(C)[C@@H](CC(C)C)C(=O)O[C@H](Cc2ccc(Cn3cc(C4CC4)cn3)cc2)C(=O)N(C)[C@@H](CC(C)C)C(=O)O[C@H](C)C(=O)N1C [Example 1b-45, (3S,6R,9S,12R,15S,18R,21S,24R)-6,18-bis(4-((4-cyclopropyl-1H-pyrazol-1-yl)methyl)benzyl)-3,9,15,21-tetraisobutyl-4,10,12,16,22,24-hexamethyl-1,7,13,19-tetraoxa-4,10,16,22-tetraazacyclotetracosan-2,5,8,11,14,17,20,23-octaone] | 0.01 to 0.1 | 127 | 104 | – | –
CC(C)C[C@H]1C(=O)O[C@H](Cc2ccc(Cn3cnc(Br)c3)cc2)C(=O)N(C)[C@@H](CC(C)C)C(=O)O[C@H](C)C(=O)N(C)[C@@H](CC(C)C)C(=O)O[C@H](Cc2ccc(Cn3cnc(Br)c3)cc2)C(=O)N(C)[C@@H](CC(C)C)C(=O)O[C@H](C)C(=O)N1C [Example 6-12, (3S,6R,9S,12R,15S,18R,21S,24R)-6,18-bis(4-((4-bromo-1H-imidazol-1-yl)methyl)benzyl)-3,9,15,21-tetraisobutyl-4,10,12,16,22,24-hexamethyl-1,7,13,19-tetraoxa-4,10,16,22-tetraazacyclotetracosan-2,5,8,11,14,17,20,23-octaone] | 0.001 to 0.01 | – | – | 1 to 10 | ≤ 0.0001
CC(C)C[C@H]1C(=O)O[C@H](Cc2cccc(Cn3ccnc3Cl)c2)C(=O)N(C)[C@@H](CC(C)C)C(=O)O[C@H](C)C(=O)N(C)[C@@H](CC(C)C)C(=O)O[C@H](Cc2ccc(Cn3ccnc3Cl)cc2)C(=O)N(C)[C@@H](CC(C)C)C(=O)O[C@H](C)C(=O)N1C [Example 7-9, (3S,6R,9S,12R,15S,18R,21S,24R)-6-(3-((2-chloro-1H-imidazol-1-yl)methyl)benzyl)-18-(4-((2-chloro-1H-imidazol-1-yl)methyl)benzyl)-3,9,15,21-tetraisobutyl-4,10,12,16,22,24-hexamethyl-1,7,13,19-tetraoxa-4,10,16,22-tetraazacyclotetracosan-2,5,8,11,14,17,20,23-octaone] | 0.001 to 0.01 | – | – | 1 to 10 | 0.0001 to 0.001
CC(C)C[C@H]1C(=O)O[C@H](Cc2ccc(Cn3ccnc3Br)cc2)C(=O)N(C)[C@@H](CC(C)C)C(=O)O[C@H](C)C(=O)N(C)[C@@H](CC(C)C)C(=O)O[C@H](Cc2ccccc2)C(=O)N(C)[C@@H](CC(C)C)C(=O)O[C@H](C)C(=O)N1C [Example 8-3, (3S,6R,9S,12R,15S,18R,21S,24R)-6-benzyl-18-[[4-[(2-bromoimidazol-1-yl)methyl]phenyl]methyl]-3,9,15,21-tetraisobutyl-4,10,12,16,22,24-hexamethyl-1,7,13,19-tetraoxa-4,10,16,22-tetrazacyclotetracosane-2,5,8,11,14,17,20,23-octaone] | 0.001 to 0.01 | – | – | 1 to 10 | 0.0001 to 0.001
CC(C)C[C@H]1C(=O)O[C@H](Cc2ccc(Cn3cnc(Br)c3)cc2)C(=O)N(C)[C@@H](CC(C)C)C(=O)O[C@H](C)C(=O)N(C)[C@@H](CC(C)C)C(=O)O[C@H](Cc2ccccc2)C(=O)N(C)[C@@H](CC(C)C)C(=O)O[C@H](C)C(=O)N1C [Example 8-15, (3S,6R,9S,12R,15S,18R,21S,24R)-6-benzyl-18-(4-((4-bromo-1H-imidazol-1-yl)methyl)benzyl)-3,9,15,21-tetraisobutyl-4,10,12,16,22,24-hexamethyl-1,7,13,19-tetraoxa-4,10,16,22-tetraazacyclotetracosan-2,5,8,11,14,17,20,23-octaone] | 0.001 to 0.01 | – | – | 1 to 10 | 0.0001 to 0.001
CC(C)C[C@H]1C(=O)O[C@H](Cc2ccc(Cn3cc(C(F)(F)F)ccc3=O)cc2)C(=O)N(C)[C@@H](CC(C)C)C(=O)O[C@H](C)C(=O)N(C)[C@@H](CC(C)C)C(=O)O[C@H](Cc2ccc(Cn3cc(C(F)(F)F)ccc3=O)cc2)C(=O)N(C)[C@@H](CC(C)C)C(=O)O[C@H](C)C(=O)N1C [Example 9-22, (3S,6R,9S,12R,15S,18R,21S,24R)-3,9,15,21-tetraisobutyl-4,6,10,16,18,22-hexamethyl-12,24-bis(4-((2-oxo-5-(trifluoromethyl)pyridin-1 (2H)-yl)methyl)benzyl)-1,7,13,19-tetraoxa-4,10,16,22-tetraazacyclotetracosan-2,5,8,11,14,17,20,23-octaone] | 0.001 to 0.01 | – | – | 1 to 10 | 0.001 to 0.01
Cc1ccc(C#N)n1Cc1ccc(C[C@H]2OC(=O)[C@H](CC(C)C)N(C)C(=O)[C@@H](C)OC(=O)[C@H](CC(C)C)N(C)C(=O)[C@@H](Cc3ccc(Cn4c(C)ccc4C#N)cc3)OC(=O)[C@H](CC(C)C)N(C)C(=O)[C@@H](C)OC(=O)[C@H](CC(C)C)N(C)C2=O)cc1 [Example 9-48, 1,1′-(((((2R,5S,8R,11 S,14R,17S,20R,23S)-5,11,17,23-tetraisobutyl-4,8,10,16,20,22-hexamethyl-3,6,9,12,15,18,21,24-octaoxo-1,7,13,19-tetraoxa-4,10,16,22-tetraazacyclotetracosane-2,14-diyl)bis(methylene))bis(4,1-phenylene))bis(methylene))bis(5-methyl-1H-pyrrole-2-carbonitrile)] | 0.001 to 0.01 | – | – | ≤ 1 | ≤ 0.0001
CC(C)C[C@H]1C(=O)O[C@H](Cc2ccc(Cn3ncnc3C(C)(C)C)cc2)C(=O)N(C)[C@@H](CC(C)C)C(=O)O[C@H](C)C(=O)N(C)[C@@H](CC(C)C)C(=O)O[C@H](Cc2ccc(Cn3ncnc3C(C)(C)C)cc2)C(=O)N(C)[C@@H](CC(C)C)C(=O)O[C@H](C)C(=O)N1C [Example 9-51, (3S,6R,9S,12R,15S,18R,21S,24R)-6,18-bis(4-((5-(tert-butyl)-1H-1,2,4-triazol-1-yl)methyl)benzyl)-3,9,15,21-tetraisobutyl-4,10,12,16,22,24-hexamethyl-1,7,13,19-tetraoxa-4,10,16,22-tetraazacyclotetracosan-2,5,8,11,14,17,20,23-octaone] | 0.001 to 0.01 | – | – | 1 to 10 | 0.001 to 0.01
CC(C)C[C@H]1C(=O)O[C@H](Cc2ccc(Cn3ncnc3C3CCCC3)cc2)C(=O)N(C)[C@@H](CC(C)C)C(=O)O[C@H](C)C(=O)N(C)[C@@H](CC(C)C)C(=O)O[C@H](Cc2ccc(Cn3ncnc3C3CCCC3)cc2)C(=O)N(C)[C@@H](CC(C)C)C(=O)O[C@H](C)C(=O)N1C [Example 9-52, (3S,6R,9S,12R,15S,18R,21S,24R)-6,18-bis(4-((5-cyclopentyl-1H-1,2,4-triazol-1-yl)methyl)benzyl)-3,9,15,21-tetraisobutyl-4,10,12,16,22,24-hexamethyl-1,7,13,19-tetraoxa-4,10,16,22-tetraazacyclotetracosan-2,5,8,11,14,17,20,23-octaone] | 0.001 to 0.01 | – | – | 1 to 10 | 0.001 to 0.01
CC(C)Cc1ncnn1Cc1ccc(C[C@H]2OC(=O)[C@H](CC(C)C)N(C)C(=O)[C@@H](C)OC(=O)[C@H](CC(C)C)N(C)C(=O)[C@@H](Cc3ccc(Cn4ncnc4CC(C)C)cc3)OC(=O)[C@H](CC(C)C)N(C)C(=O)[C@@H](C)OC(=O)[C@H](CC(C)C)N(C)C2=O)cc1 [Example 9-53, (3S,6R,9S,12R,15S,18R,21S,24R)-3,9,15,21-tetraisobutyl-6,18-bis(4-((5-isobutyl-1H-1,2,4-triazol-1-yl)methyl)benzyl)-4,10,12,16,22,24-hexamethyl-1,7,13,19-tetraoxa-4,10,16,22-tetraazacyclotetracosan-2,5,8,11,14,17,20,23-octaone] | 0.001 to 0.01 | – | – | 1 to 10 | 0.001 to 0.01
CC(C)C[C@H]1C(=O)O[C@H](Cc2ccc(Cn3ncnc3CC(C)(C)C)cc2)C(=O)N(C)[C@@H](CC(C)C)C(=O)O[C@H](C)C(=O)N(C)[C@@H](CC(C)C)C(=O)O[C@H](Cc2ccc(Cn3ncnc3CC(C)(C)C)cc2)C(=O)N(C)[C@@H](CC(C)C)C(=O)O[C@H](C)C(=O)N1C [Example 9-56, (3S,6R,9S,12R,15S,18R,21S,24R)-3,9,15,21-tetraisobutyl-4,6,10,16,18,22-hexamethyl-12,24-bis(4-((5-neopentyl-1H-1,2,4-triazol-1-yl)methyl)benzyl)-1,7,13,19-tetraoxa-4,10,16,22-tetraazacyclotetracosan-2,5,8,11,14,17,20,23-octaone] | 0.001 to 0.01 | – | – | 1 to 10 | 0.001 to 0.01
Cc1ccc(C#N)n1Cc1ccc(C[C@H]2OC(=O)[C@H](CC(C)C)N(C)C(=O)[C@@H](C)OC(=O)[C@H](CC(C)C)N(C)C(=O)[C@@H](Cc3ccccc3)OC(=O)[C@H](CC(C)C)N(C)C(=O)[C@@H](C)OC(=O)[C@H](CC(C)C)N(C)C2=O)cc1 [Example 10-30, 1-(4-(((2R,5S,8R,11S,14R,17S,20R,23S)-14-benzyl-5,11,17,23-tetraisobutyl-4,8,10,16,20,22-hexamethyl-3,6,9,12,15,18,21,24-octaoxo-1,7,13,19-tetraoxa-4,10,16,22-tetraazacyclotetracosan-2-yl)methyl)benzyl)-5-methyl-1H-pyrrole-2-carbonitrile] | 0.001 to 0.01 | – | – | 1 to 10 | 0.0001 to 0.001
